In ChEMBL document CHEMBL3991601, “The target landscape of clinical kinase drugs” (Science, 2017):
Calls of active or inactive are those of the source. For most assays here, no stated cut-off is given here; in the data, actives have a measured Kd and inactives only a lower limit.

Key:
[1] = molecular target: cAMP-dependent protein kinase catalytic subunit beta (Homo sapiens, UniProt P22694)
[2] = molecular target: Cyclin-dependent kinase 2 (Homo sapiens, UniProt P24941)
[3] = molecular target: T1, Ferrochelatase, mitochondrial (Homo sapiens, UniProt P22830)
T1 sequence (P22830 whole entry): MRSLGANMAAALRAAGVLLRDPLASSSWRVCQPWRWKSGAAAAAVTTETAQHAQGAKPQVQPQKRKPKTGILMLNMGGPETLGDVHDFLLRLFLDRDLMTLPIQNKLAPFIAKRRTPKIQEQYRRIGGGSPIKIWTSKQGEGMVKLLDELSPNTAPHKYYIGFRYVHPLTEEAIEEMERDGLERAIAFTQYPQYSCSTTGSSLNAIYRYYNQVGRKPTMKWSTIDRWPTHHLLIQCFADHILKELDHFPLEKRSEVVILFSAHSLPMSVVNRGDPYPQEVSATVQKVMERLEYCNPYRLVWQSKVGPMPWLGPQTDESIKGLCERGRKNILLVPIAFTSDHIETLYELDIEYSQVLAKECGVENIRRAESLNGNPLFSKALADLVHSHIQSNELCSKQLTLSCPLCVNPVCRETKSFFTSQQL

[4] = molecular target: T2, Serine/threonine-protein kinase TAO2 (Homo sapiens, UniProt Q9UL54)
T2 sequence (Q9UL54 whole entry): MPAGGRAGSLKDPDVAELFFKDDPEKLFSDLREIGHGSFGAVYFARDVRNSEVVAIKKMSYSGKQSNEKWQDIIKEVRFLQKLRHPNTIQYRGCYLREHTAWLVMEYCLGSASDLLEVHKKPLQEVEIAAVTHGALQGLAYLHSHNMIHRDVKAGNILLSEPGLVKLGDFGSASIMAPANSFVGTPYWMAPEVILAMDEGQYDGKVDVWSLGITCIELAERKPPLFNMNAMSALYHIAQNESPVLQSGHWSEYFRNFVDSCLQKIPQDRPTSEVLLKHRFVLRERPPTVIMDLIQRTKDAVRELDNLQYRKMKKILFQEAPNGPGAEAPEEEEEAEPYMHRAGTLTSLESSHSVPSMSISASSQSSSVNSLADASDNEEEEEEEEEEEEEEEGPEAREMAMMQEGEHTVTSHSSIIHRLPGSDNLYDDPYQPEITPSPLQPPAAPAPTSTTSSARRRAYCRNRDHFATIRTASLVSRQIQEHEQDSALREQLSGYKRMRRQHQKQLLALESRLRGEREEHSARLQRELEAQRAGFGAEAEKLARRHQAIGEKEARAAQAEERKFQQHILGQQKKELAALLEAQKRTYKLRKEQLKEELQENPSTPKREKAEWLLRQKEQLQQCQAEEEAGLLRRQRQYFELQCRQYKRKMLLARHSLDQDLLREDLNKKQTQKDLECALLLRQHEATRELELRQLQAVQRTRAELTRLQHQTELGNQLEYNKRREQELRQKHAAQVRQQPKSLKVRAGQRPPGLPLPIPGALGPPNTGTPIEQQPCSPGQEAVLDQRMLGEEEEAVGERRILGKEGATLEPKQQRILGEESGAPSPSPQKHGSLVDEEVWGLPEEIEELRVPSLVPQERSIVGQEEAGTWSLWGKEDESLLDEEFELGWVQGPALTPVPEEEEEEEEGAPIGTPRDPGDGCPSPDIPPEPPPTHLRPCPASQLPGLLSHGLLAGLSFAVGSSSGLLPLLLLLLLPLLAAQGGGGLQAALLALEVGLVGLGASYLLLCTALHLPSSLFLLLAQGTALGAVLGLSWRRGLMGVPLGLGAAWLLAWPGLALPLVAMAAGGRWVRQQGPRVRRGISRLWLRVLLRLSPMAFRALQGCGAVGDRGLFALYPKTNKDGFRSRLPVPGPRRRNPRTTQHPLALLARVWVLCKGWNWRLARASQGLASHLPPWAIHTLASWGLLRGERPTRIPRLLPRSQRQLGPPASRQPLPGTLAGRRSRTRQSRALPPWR

[5] = molecular target: Serine/threonine-protein kinase/endoribonuclease IRE1 (Homo sapiens, UniProt O75460)
[6] = molecular target: T3, Structural maintenance of chromosomes protein 1A (Homo sapiens, UniProt Q14683)
T3 sequence (Q14683 whole entry): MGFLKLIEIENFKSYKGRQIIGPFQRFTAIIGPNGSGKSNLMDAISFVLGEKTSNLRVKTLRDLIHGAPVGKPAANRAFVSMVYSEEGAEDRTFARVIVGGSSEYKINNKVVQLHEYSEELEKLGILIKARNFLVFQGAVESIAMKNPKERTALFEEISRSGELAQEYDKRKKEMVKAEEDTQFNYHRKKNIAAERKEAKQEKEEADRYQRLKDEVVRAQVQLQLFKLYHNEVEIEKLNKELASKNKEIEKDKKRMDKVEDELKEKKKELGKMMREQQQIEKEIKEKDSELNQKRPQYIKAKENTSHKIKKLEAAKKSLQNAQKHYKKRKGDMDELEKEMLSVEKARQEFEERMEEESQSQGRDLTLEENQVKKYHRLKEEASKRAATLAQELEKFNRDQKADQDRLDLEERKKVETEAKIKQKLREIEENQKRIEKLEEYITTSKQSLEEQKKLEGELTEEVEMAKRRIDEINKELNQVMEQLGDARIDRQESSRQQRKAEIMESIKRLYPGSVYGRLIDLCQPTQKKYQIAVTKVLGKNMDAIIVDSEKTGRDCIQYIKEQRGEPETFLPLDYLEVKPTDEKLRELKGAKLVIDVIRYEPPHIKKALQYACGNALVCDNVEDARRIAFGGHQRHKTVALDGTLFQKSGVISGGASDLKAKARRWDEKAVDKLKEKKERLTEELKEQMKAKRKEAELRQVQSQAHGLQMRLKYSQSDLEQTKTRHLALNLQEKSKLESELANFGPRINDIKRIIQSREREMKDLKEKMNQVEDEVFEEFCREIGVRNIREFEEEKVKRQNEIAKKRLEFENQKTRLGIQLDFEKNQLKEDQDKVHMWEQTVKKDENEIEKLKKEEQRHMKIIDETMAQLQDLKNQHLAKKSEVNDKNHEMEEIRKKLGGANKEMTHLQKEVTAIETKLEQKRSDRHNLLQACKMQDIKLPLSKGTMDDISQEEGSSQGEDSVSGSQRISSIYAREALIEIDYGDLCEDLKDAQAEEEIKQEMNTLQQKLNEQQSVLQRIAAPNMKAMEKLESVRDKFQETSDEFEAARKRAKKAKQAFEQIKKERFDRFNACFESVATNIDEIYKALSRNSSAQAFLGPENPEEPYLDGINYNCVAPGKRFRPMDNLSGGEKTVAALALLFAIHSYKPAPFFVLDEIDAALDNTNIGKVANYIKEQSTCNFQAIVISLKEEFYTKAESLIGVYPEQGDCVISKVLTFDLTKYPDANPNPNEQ

Serine/threonine-protein kinase/endoribonuclease IRE1, sequence (O75460 whole entry): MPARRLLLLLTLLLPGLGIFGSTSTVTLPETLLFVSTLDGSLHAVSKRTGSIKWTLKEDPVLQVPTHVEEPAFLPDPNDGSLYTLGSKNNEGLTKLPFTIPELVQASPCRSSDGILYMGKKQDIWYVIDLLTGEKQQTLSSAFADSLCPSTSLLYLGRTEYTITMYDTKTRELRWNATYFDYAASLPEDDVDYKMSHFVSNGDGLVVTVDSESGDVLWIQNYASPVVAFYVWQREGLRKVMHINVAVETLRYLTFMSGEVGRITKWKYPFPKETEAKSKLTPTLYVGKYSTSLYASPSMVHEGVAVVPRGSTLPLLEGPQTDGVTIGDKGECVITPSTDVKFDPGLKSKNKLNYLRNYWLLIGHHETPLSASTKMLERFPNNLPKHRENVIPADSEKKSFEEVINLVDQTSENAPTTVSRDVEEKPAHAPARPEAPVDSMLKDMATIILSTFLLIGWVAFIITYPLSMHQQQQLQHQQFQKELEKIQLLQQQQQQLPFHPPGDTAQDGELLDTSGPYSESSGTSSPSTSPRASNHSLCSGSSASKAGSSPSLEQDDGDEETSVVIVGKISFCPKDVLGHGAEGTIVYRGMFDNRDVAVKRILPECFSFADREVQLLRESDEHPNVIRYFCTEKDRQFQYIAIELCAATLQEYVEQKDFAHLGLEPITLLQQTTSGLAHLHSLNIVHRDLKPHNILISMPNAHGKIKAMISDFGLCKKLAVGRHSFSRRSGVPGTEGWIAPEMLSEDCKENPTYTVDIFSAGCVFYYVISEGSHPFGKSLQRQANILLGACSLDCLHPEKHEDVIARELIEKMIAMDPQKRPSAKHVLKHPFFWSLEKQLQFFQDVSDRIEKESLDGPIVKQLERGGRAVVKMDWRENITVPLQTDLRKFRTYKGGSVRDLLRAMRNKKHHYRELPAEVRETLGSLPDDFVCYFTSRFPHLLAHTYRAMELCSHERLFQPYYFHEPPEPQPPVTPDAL

Row | Compound | Kd [3] | Kd [6] | Kd [1] | Kd [2] | Kd [4] | Kd [5]
1 | Cc1c(NC(=O)OC[C@@H]2COCCN2)cn2ncnc(Nc3ccc4c(cnn4Cc4cccc(F)c4)c3)c12 [AC-480] | > 30 µM (inactive) | – | > 30 µM (inactive) | > 30 µM (inactive) | > 30 µM (inactive) | > 30 µM (inactive)
2 | C[C@]1(O)C[C@@H](c2nc(-c3ccc4ccc(-c5ccccc5)nc4c3)c3c(N)nccn32)C1 [LINSITINIB] | 4.21 µM (active) | > 30 µM (inactive) | > 30 µM (inactive) | – | – | > 30 µM (inactive)
3 | COc1cc2ncnc(Nc3ccc(O)cc3)c2cc1OC [WHI-P131] | > 30 µM (inactive) | > 30 µM (inactive) | > 30 µM (inactive) | – | > 30 µM (inactive) | > 30 µM (inactive)
4 | COc1cc(F)c(F)c(Nc2ccc(I)cc2F)c1NS(=O)(=O)C1(C[C@H](O)CO)CC1 [REFAMETINIB] | > 30 µM (inactive) | – | > 30 µM (inactive) | > 30 µM (inactive) | > 30 µM (inactive) | > 30 µM (inactive)
5 | CC(C)CC(=O)Nc1[nH]nc2c1CN(C(=O)C1CCN(C)CC1)C2(C)C [PHA-793887] | > 30 µM (inactive) | > 30 µM (inactive) | > 30 µM (inactive) | – | > 30 µM (inactive) | > 30 µM (inactive)
6 | CN(C)C/C=C/C(=O)Nc1cc2c(Nc3ccc(F)c(Cl)c3)ncnc2cc1O[C@H]1CCOC1 [AFATINIB] | > 30 µM (inactive) | – | – | – | – | –
7 | O=c1[nH]c([C@@H]2CCCN2)nc2c1oc1ccc(Cl)cc12 | > 30 µM (inactive) | – | > 30 µM (inactive) | > 30 µM (inactive) | > 30 µM (inactive) | > 30 µM (inactive)
8 | N#CCNC(=O)c1ccc(-c2ccnc(Nc3ccc(N4CCOCC4)cc3)n2)cc1 [MOMELOTINIB] | > 30 µM (inactive) | > 30 µM (inactive) | > 30 µM (inactive) | – | > 30 µM (inactive) | > 30 µM (inactive)
9 | Cn1cnc2c(F)c(Nc3ccc(Br)cc3Cl)c(C(=O)NOCCO)cc21 [SELUMETINIB] | > 30 µM (inactive) | 0.365 µM | – | – | – | –
10 | c1cc(OCCN2CCCCC2)cc(-c2n[nH]c3ccc(-c4nc[nH]n4)cc23)c1 [CC-401] | 32.4 µM (active) | – | > 30 µM (inactive) | – | > 30 µM (inactive) | > 30 µM (inactive)
11 | CC1(C)CNc2cc(NC(=O)c3cccnc3NCc3ccncc3)ccc21 [MOTESANIB] | > 30 µM (inactive) | > 30 µM (inactive) | – | – | – | –
12 | O=S(=O)(c1cccc2cnccc12)N1CCCNCC1 [FASUDIL] | > 30 µM (inactive) | > 30 µM (inactive) | – | – | > 30 µM (inactive) | > 30 µM (inactive)
13 | C=CCN(/C=C1/C(=O)O[C@H](COC)[C@@]2(C)C1=C(O)C(=O)C1=C2[C@H](OC(C)=O)C[C@]2(C)C(=O)CC[C@@H]12)CC=C [SONOLISIB] | > 30 µM (inactive) | – | > 30 µM (inactive) | > 30 µM (inactive) | > 30 µM (inactive) | > 30 µM (inactive)

Further lines, with some results ahead:

Row | Kd [3] | Kd [6] | Compound | Kd [1] | Kd [2] | Kd [4] | Kd [5]
14 | > 30 µM (inactive) | > 30 µM (inactive) | COc1cc2c(Oc3ccc4[nH]c(C)cc4c3F)ncnc2cc1OCCCN1CCCC1 [CEDIRANIB] | – | – | – | –
15 | > 30 µM (inactive) | – | COc1cc2c(N3CCN(C(=O)Nc4ccc(OC(C)C)cc4)CC3)ncnc2cc1OCCCN1CCCCC1 [TANDUTINIB] | – | – | – | –
16 | > 30 µM (inactive) | > 30 µM (inactive) | CCN1CCN(Cc2ccc(Nc3ncc(F)c(-c4cc(F)c5nc(C)n(C(C)C)c5c4)n3)nc2)CC1 [ABEMACICLIB] | > 30 µM (inactive) | – | > 30 µM (inactive) | > 30 µM (inactive)
17 | > 30 µM (inactive) | > 30 µM (inactive) | C=CC(=O)Nc1cccc(Nc2nc(Nc3ccc(N4CCN(C(C)=O)CC4)cc3OC)ncc2C(F)(F)F)c1 [ROCILETINIB] | – | > 30 µM (inactive) | > 30 µM (inactive) | > 30 µM (inactive)
18 | > 30 µM (inactive) | > 30 µM (inactive) | C[C@@]1(C(=O)Nc2ccc(F)nc2)CCCN1c1nc(Nc2cc(C3CC3)n[nH]2)c2cccn2n1 [BMS-754807] | – | – | – | –
19 | > 30 µM (inactive) | – | COc1cc2ncnc(Nc3ccc(F)c(Cl)c3)c2cc1NC(=O)/C=C/CN1CCCCC1 [DACOMITINIB ANHYDROUS] | > 30 µM (inactive) | > 30 µM (inactive) | > 30 µM (inactive) | > 30 µM (inactive)
